The values below are quoted from earlier work in patent US11827664B2, “Biaryl amides with modified sugar groups for treatment of diseases associated with heat shock protein pathway” (REATA PHARMACEUTICALS, INC., priority 2018, dated 2023).

pIC50: −log10 of the molar value.

In series [1] the test system is diabetic mice. Conditions: cited from earlier work.
The test system of series [2] is neurons. Conditions: in vitro; cited from earlier work.
Series [3] has as its system neurons. The following applies: cited from earlier work.
The target of series [4] is Hsp90 C-terminus nucleotide binding pocket. The following applies: low affinity; Marcu, et al., 2000; cited from earlier work.

As to `CO[C@@H]1[C@@H](O)[C@@H](O)C(Oc2ccc(CCNC(C)=O)c(-c3cccc(F)c3)c2)OC1(C)C` (stereo partly drawn) [KU-596, N-(2-(5-(((3R,4S,5R)-3,4-dihydroxy-5-methoxy-6,6-dimethyltetra-hydro-2H-pyran-2-yl)oxy)-3′-fluoro-[1,1′-biphenyl]-2-yl)ethyl)-acetamide], in series [1], the “effect on symptoms of DPN / neuropathy in diabetic mice” value is “alleviate symptoms of neuropathy in diabetic mice”. In addition, the “protection of neurons from hyperglycemic conditions” value in series [2] is listed as “protect neurons from hyperglycemic conditions in vitro”. Further, the “effect on expression of inflammatory markers” value in series [3] (diabetic neurons) was “reduce the expression of inflammatory markers in diabetic neurons”. Moreover, in series [3] (neurons), the “effect on mitochondrial function / bioenergetics” value is given as “improve impaired mitochondrial function in neurons”.

For `CO[C@@H]1[C@@H](OC(N)=O)[C@@H](O)[C@H](Oc2ccc3c(O)c(NC(=O)c4ccc(O)c(CC=C(C)C)c4)c(=O)oc3c2C)OC1(C)C` [novobiocin], the pIC50 in series [4] is roughly 3.15.

In general, pIC50 refers to the IC50 on a negative log10 scale, so that one unit is a factor of ten.
